# Experimental data taken from patent publication US12012597B2, “Cancer treatment using siRNA to modulate expression of PRDM2/RIZ protein” (ARIZ Precision Medicine, Inc., priority 2020, dated 2024).
# Entries after “also recorded” stand apart in the source; their conditions may differ. d = 2'-deoxy (DNA); r = 2'-OH (RNA)
# Key:
# [1] = test system: HCT116 colon cancer cells; test: Cell viability after siRNA transfection with or without 5-fluorouracil; details: 5-fluorouracil 25 μM added one day after transfection, after four days, relative to untreated cells, FIG. 4
# Description: Where indicated, 5-fluorouracil (25 μM) was added one day after transfection. Media (with 5-flurouracil where indicated) was changed after two days, and after four days, percent cell viability was determined, relative to untreated cells.
# A549 lung cancer cells = test: MTS cell viability assay after siRNA transfection; assay type: cell-based, human; details: 100 nM siRNA; for Viability of the A549 lung cancer cells (change): DharmaFECT 1, after four days, FIG. 2; for relative cell viability: single exposure, after four days, relative to untreated cells
# RIZ2 mRNA [2] = test: qPCR of RIZ2 mRNA in siRNA-transfected A549 cells; assay type: cell-based, human
# Description: (§1) RIZ1 and RIZ2 mRNA levels were determined in control and siRNA-transfected cells using qPCR. RNA was extracted from cells 48 hours after transfection, and mRNA expression levels were detected using PRDM isoform A and PRDM isoform C specific PCR primers. RIZ mRNA expression levels were determined relative to GAPDH mRNA expression levels. Scrambled siRNA was used a negative control, and Tox (Transfection control siRNA, commercially available) was used a positive control.
# RIZ1 mRNA [3] = test: qPCR of RIZ1 mRNA in siRNA-transfected A549 cells; assay type: cell-based, human; details: qPCR relative to GAPDH mRNA
# Description: as §1
# RIZ2 mRNA [4] = test: RIZ2 mRNA level in HCT116 cells after siRNA; assay type: cell-based, human; details: FIG. 5
# Description: as §1
# RIZ1 mRNA [5] = test: RIZ1 mRNA level in HCT116 cells after siRNA; assay type: cell-based, human; details: FIG. 5
# Description: as §1
# [6] = test system: KMS-11 multiple myeloma cell line; test: Viability of multiple myeloma cells after siRNA; assay type: cell-based; details: comparable to the Tox positive control, FIG. 8
# From the text: In this example, the effect of siRNA ARIZ-011 was further tested on a multiple myeloma cell line, KMS-11. KMS-11 cell line was obtained from commercially available sources, and was originally derived from […] multiple myeloma patient's cells. These cells have characteristics of plasma cells.
compound,measurement,setting,value
O=c1[nH]cc(F)c(=O)[nH]1 [5-fluorouracil],cytotoxicity at 25 µM,"[1]; Homo sapiens, HCT-116, read-out: decreased cell viability (killing) of HCT116 colon cancer cells, siRNA 100 nM",72 to 74%
same,decreased cell viability (killing) of HCT116 colon cancer cells,[1]; siRNA 100 nM,72%
"ARIZ-011: Unmodified double-stranded siRNA, sense SEQ ID NO: 1, antisense SEQ ID NO: 10, complementary to both RIZ1 and RIZ2 mRNA (sense GGGAGAGAUGAGAGAGAAATT; antisense UUUCUCUCUCAUCUCUCCCTT; RNA, all phosphodiester, T or U not given here)",Viability of the A549 lung cancer cells (change),A549 lung cancer cells,decreased
same,relative cell viability,A549 lung cancer cells,30%
same,decrease in RIZ2 mRNA,"RIZ2 mRNA [2]; 48 hours after transfection, relative to GAPDH mRNA, FIG. 3",~75%
same,RIZ2 mRNA level (change),RIZ2 mRNA [2]; qPCR relative to GAPDH mRNA,knockdown
same,RIZ1 mRNA level (change),RIZ1 mRNA [3],simultaneous increase in RIZ1 mRNA; also recorded: upregulated expression
same,expression level of RIZ2 (change),RIZ2 mRNA [4],selectively decreased
same,RIZ1 mRNA (change),RIZ1 mRNA [5],concurrent increase
same,KMS-11 cell death in culture,[6],about 80%
"ARIZ-012: Double-stranded siRNA, sense SEQ ID NO: 2, antisense SEQ ID NO: 12, complementary to sequences shared by RIZ1 and RIZ2 mRNA (sense GUGUAGUGCUGUAAAGAAATT; antisense UUUCUUUACAGCACUACACTT; sugars from the 5' end r19 d2, backbone and T or U not given here)",Viability of the A549 lung cancer cells (change),A549 lung cancer cells,decreased
"ARIZ-015: Double-stranded siRNA, sense SEQ ID NO: 5, antisense SEQ ID NO: 15, complementary to last 19 bases at 3′ end of RIZ2 mRNA (sense GGACUUCAGGAACUUCCUGTT; antisense CAGGAAGUUCCUGAAGUCCTT; sugars from the 5' end r19 d2, backbone and T or U not given here)",Viability of the A549 lung cancer cells (change),A549 lung cancer cells,decreased
same,relative cell viability,A549 lung cancer cells,70%
